Measured values from paper PMC2946430 (Biosensors & bioelectronics, 2010).

How the values were obtained:
[1] = target: EGFR kinase activity in H1650-ER1, H1650-ER2, H1650-ER4 cell lysates (Homo sapiens, UniProt P00533, DEL746-750)
[2] = system: phosphorylation of MAPK and Akt in H1650-ER1, H1650-ER2 and H1650-ER4 cells; test: Western blot of MAPK and Akt phosphorylation, resistant clones; format: cell-based, human; conditions: for suppression of p-AKT and p-MAPK levels: resistant H1650-ER1 cells compared to parent H1650 cells
[3] = system: EGFR kinase activity in H23 cell lysate (wild type EGFR); test: Hydrogel-based peptide array kinase assay, H23 cell lysate; format: biochemical, human; conditions: 0-50 μM, compared with H1650
[4] = system: phosphorylation of MAPK and Akt in H1650 cells; test: Western blot of MAPK and Akt phosphorylation, parental H1650; format: cell-based, human
H1650 cells [5] = test: Clonogenic assay, parental H1650; format: cell-based, human; conditions: parental H1650, continuous exposure 10 μM and 50 μM, 15 days
[6] = system: erlotinib-resistant H1650 clones; test: cells; conditions: Homo sapiens, NCI-H1650, 48 h, read-out: IC50, cell proliferation/viability
H1650 cells [7] = test: cells; conditions: Homo sapiens, NCI-H1650, 48 h, read-out: IC50, cell proliferation/viability

Work on `C[C@@H](Nc1ncnc2[nH]c(-c3ccc(O)cc3)cc12)c1ccccc1` [PKI-166] yielded an IC50 [1] of over 10 µM.
For `CC#CC(=O)Nc1ccc2ncnc(Nc3cccc(Br)c3)c2c1` [CL-387,785], the “suppression of p-AKT and p-MAPK levels” value [2] was “persistent activity”.
With `C#Cc1cccc(Nc2ncnc3cc(OCCOC)c(OCCOC)cc23)c1` [erlotinib] the “effect on substrate phosphorylation by H23 lysate” value [3] was “much less effective”, the MAPK phosphorylation ([4]; parental H1650, 0, 1 and 10 μM for 5 hr, Western blot) was “attenuation in MAPK phosphorylation” and the Akt phosphorylation ([4]; parental H1650, Western blot) was “did not affect”. For the same compound, the colony formation (H1650 cells [5]) was “very few colonies”, the IC50 [6] was over 20 µM and the IC50 (H1650 cells [7]) was about 2.4 µM. The MAPK phosphorylation ([2]; H1650-ER1, H1650-ER2, H1650-ER4, 0, 1 and 10 μM for 5 hr) was “maintained”, the “suppression of p-AKT and p-MAPK levels” value [2] was “reduced efficacy” and the Akt phosphorylation ([2]; resistant clones) was “did not affect”.
